Where two headings read alike, the source gives them in different places. No end group written: not given here.
How the values were obtained:
Assay in all cases: biochemical
Assay type in all cases: binding
[1] = molecular target: HLA-DR DRB1*0301 (DR3) (Homo sapiens, UniProt P01903+P01911, A100K/A102G/A103R/A169T/F55Y/I96L/K41T/L162R/M171V/P40S/Q125H/Q178H/Q39Y/R42S/S66N/T106N/T262R/W38E/Y61H)
[2] = molecular target: HLA-DR DRB4*0101 (DR53) (Homo sapiens, UniProt P01903+P13762, G164S)
[3] = molecular target: HLA-DR DRB1*1101 (DR11) (Homo sapiens, UniProt P01903+P01911, A100R/A169T/A87E/I96F/K41T/L162R/M171V/P40S/Q125H/Q178H/Q39Y/Q99D/R42S/S66Y/T262R/V115G/W38E); conditions: DRB1 *1101
HLA-DR DRB1*1101 (DR11), sequence (P01903 26-254 limits assumed, other chains not shown): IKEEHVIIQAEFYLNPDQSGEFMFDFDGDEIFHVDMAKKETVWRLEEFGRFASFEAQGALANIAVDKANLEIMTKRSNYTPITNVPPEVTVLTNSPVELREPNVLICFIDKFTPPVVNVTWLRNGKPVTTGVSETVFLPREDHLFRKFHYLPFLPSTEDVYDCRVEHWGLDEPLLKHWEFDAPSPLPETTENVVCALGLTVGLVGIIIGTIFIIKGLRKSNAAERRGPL

[4] = molecular target: HLA-DR DRB1*1501 (DR15) (Homo sapiens, UniProt P01903+P01911)
[5] = molecular target: HLA-DR DRB1*0401 (DR4) (Homo sapiens, UniProt P01903+P01911, A100K/A169T/F76Y/I96L/K127E/L162R/M171V/N62H/P40V/Q125Y/R42H/S133A/S149N/S66Y/V115G/V209L/W38E)
[6] = molecular target: HLA-DR DRB1*1302 (DR13) (Homo sapiens, UniProt P01903+P01911, A100E/A169T/K41T/L162R/M171V/P40S/Q125H/Q178H/Q39Y/Q99D/R42S/S66N/T262R/V115G/W38E/Y61H); conditions: DRBI *1302
HLA-DR DRB1*1302 (DR13), sequence (P01903 26-254 limits assumed, other chains not shown): as above

[7] = molecular target: HLA-DR DRB1*0901 (DR9) (Homo sapiens, UniProt P01903+P01911, A100R/A103E/D57H/D86V/F55Y/F60I/F76Y/I96F/K127E/L162R/M171V/P40D/Q125H/Q99R/R33Q/R42F/S133A/S66N/T210M/V115G/W38K/Y107V/Y59G/Y89S); conditions: DRB1 *0901
[8] = molecular target: HLA-DR DRB1*0405 (DR4) (Homo sapiens, UniProt P01903+P01911, A100R/A169T/D86S/F76Y/I96L/K127E/L162R/M171V/N62H/P40V/Q125Y/R42H/S133A/S149N/S66Y/V115G/V209L/W38E)
[9] = molecular target: HLA-DR DRB1*0101 (DR1) (Homo sapiens, UniProt P01903+P01911, A100R/D57E/F55L/F60I/F76Y/I96L/L162R/M171V/P40L/Q125E/R42F/V115G/Y59C); conditions: DRB1 *0101
[10] = molecular target: HLA-DR DRB1*0701 (DR7) (Homo sapiens, UniProt P01903+P01911, A100R/A102G/A103Q/D57E/D86V/E43K/F76Y/K127E/L162R/M171V/P40G/Q125H/Q99D/R33Q/R42Y/R54Q/S133A/S66F/T210M/V115G/Y107V/Y59L/Y89S); conditions: DRB1 *0701
[11] = molecular target: HLA-DR DRB5*0101 (DR51) (Homo sapiens, UniProt P01903+Q30154); conditions: DRB5 *0101
[12] = molecular target: HLA-DR DRB1*0802 (DR8) (Homo sapiens, UniProt P01903+P01911, A100R/A103L/A169T/F76Y/H45Y/I96F/K41T/L162R/M171V/P40S/Q125H/Q178H/Q39Y/Q99D/R218S/R42G/S66Y/V115G/W38E)

HLA-DR DRB1*0301 (DR3), sequence (P01903 26-254 limits assumed, other chains not shown): as above

Compound	IC50 [1] [µM]	IC50 [2] [µM]	IC50 [3] [µM]	IC50 [4] [µM]	IC50 ([5]; DRB1 *0401) [µM]	IC50 [6] [µM]	IC50 [7] [µM]	IC50 ([8]; DRB1 *0405) [µM]	IC50 [9] [µM]	IC50 ([2]; DRB4 *0101) [µM]	IC50 ([4]; DRBI *1501) [µM]	IC50 [10] [µM]	IC50 [11] [µM]	IC50 [12] [µM]	IC50 ([1]; read-out: DRB1 *0301) [µM]	IC50 ([5]; read-out: DRB1 *0401) [µM]	IC50 ([12]; read-out: DRB1 *0802) [µM]	IC50 ([8]; read-out: DRB1 *0405) [µM]
CC[C@H](C)[C@H](NC(=O)[C@H](Cc1ccc(O)cc1)NC(=O)[C@@H]1CCCN1C(=O)[C@H](CC(=O)O)NC(=O)[C@H](CCC(=O)O)NC(=O)[C@H](CC(C)C)NC(=O)[C@@H](NC(=O)[C@H](C)NC(=O)[C@@H](N)CCC(=O)O)C(C)C)C(=O)N[C@@H](CC(C)C)C(=O)N[C@@H](CC(C)C)C(=O)N[C@H](C(=O)N[C@@H](CO)C(=O)N[C@@H](CO)C(=O)N[C@@H](CCCCN)C(=O)O)C(C)C	0.479	> 26.4	4.38	> 50.8	0.233	> 10.3	15	0.681	0.034	–	–	–	–	–	–	–	–	–
LRVVQQLLMGALTVT	21.7	–	–	–	–	0.0089	0.204	0.085	0.0057	0.0077	0.056	0.082	–	–	–	–	–	–
CYSLYGTTLEQQYNK	–	–	> 14.7	–	–	> 13.7	–	0.071	1.09	0.189	5.06	> 9.96	> 10.7	26	–	–	–	–
LRTLQQMLLGTLQVV	> 3750	–	0.907	–	0.437	0.616	5.08	0.079	0.08	0.088	1.7	6.91	> 46.6	–	–	–	–	–
ESTGMTPEKVPVSEVMGT	–	–	–	–	–	–	–	–	–	–	–	–	–	–	> 50	> 47.4	> 31.2	> 71.4
CC(C)C[C@H](NC(=O)[C@H](C)NC(=O)[C@H](Cc1ccccc1)NC(=O)[C@@H](N)[C@@H](C)O)C(=O)N[C@@H](Cc1c[nH]c2ccccc12)C(=O)N[C@@H](CCCNC(=N)N)C(=O)N[C@H](C(=O)N[C@@H](CO)C(=O)N[C@@H](C)C(=O)N[C@@H](CCC(=O)O)C(=O)N[C@@H](CCC(=O)O)C(=O)N[C@@H](Cc1ccc(O)cc1)C(=O)O)C(C)C	88.3	–	0.342	–	0.342	> 2.57	0.517	0.072	> 5.28	> 6.61	> 12.7	0.927	25.5	–	–	–	–	–
LQQLFLSTLSFVCPW	2.04	–	11.7	–	–	–	0.152	0.094	0.121	0.022	–	0.272	36.9	–	–	–	–	–
MKHILYISFYFILVN	–	–	–	–	0.189	–	–	3.38	5.89	–	–	–	> 9.52	15.6	–	–	–	–
GEALSTLVLNRLKVG	11.8	–	0.079	–	3.05	0.029	20.2	14.8	0.719	1.02	–	3.19	0.046	–	–	–	–	–
FVVYRDSIPHAACHK	0.2	–	–	–	0.01	1.85	2.12	0.704	0.587	18.1	0.349	–	2.34	–	–	–	–	–
CC[C@H](C)[C@H](NC(=O)[C@@H](NC(=O)[C@H](CC(C)C)NC(=O)[C@H](CC(=O)O)NC(=O)[C@@H](NC(=O)[C@H](Cc1ccccc1)NC(=O)[C@H](C)NC(=O)[C@H](Cc1ccccc1)NC(=O)[C@H](CC(=O)O)NC(=O)[C@H](CC(C)C)NC(=O)[C@@H](N)C(C)C)[C@@H](C)O)[C@@H](C)O)C(=O)N[C@H](C(=O)N[C@@H](Cc1ccc(O)cc1)C(=O)N[C@@H](CCCNC(=N)N)C(=O)N[C@@H](CC(=O)O)C(=O)O)C(C)C	0.03	–	7.47	–	–	3.1	0.252	0.721	0.354	11.3	0.645	0.23	14.8	–	–	–	–	–
WYRYSVYGTTLEKLT	26.6	–	–	–	0.249	0.805	0.284	0.0085	0.163	1.04	0.421	0.107	0.062	–	–	–	–	–
LKLVYRDDFPYAVCR	0.237	–	0.698	–	0.123	0.699	18.7	0.83	0.778	3.83	1.88	29	9.16	–	–	–	–	–
PVIKNSIKLRL	0.198	–	2.77	–	34.2	0.077	2.85	278	1.55	0.198	2.58	4.09	1.04	–	–	–	–	–
RVIKNSIRLTL	0.584	–	1.74	–	9.25	0.032	2.57	80.7	3.65	–	4.32	2.24	8.83	–	–	–	–	–
VCLLFYSKVRKYRYY	0.276	–	0.326	–	–	–	1.8	0.073	0.96	2.34	0.061	0.258	–	–	–	–	–	–

Reference: US20060079453A1, “Hla binding peptides and their uses” (priority 2002, published 2006)
